Test results: US8304377B2, “Sulfonate surfactants and methods of preparation and use” (Dow Global Technologies LLC, priority 2009, dated 2012)

How the values were obtained:
[1] = system: Desmondesmus subspicatus; test: Fresh water algal growth inhibition test (OECD 201); assay type: cell-based; details: growth rate, 0-3; read-out: Fresh Water algal growth inhibition test with Desmondesmus subspicatus ErC50/0-3
Description: The study procedures and test methods are based on the recommendations of the following guidelines: Organization for Economic Cooperation and Development (OECD): OECD Guidelines for the Testing of Chemicals, “Freshwater Alga and Cyanobacteria, Growth Inhibition Test”, Procedure 201, adopted 23 Mar. 2006; European Economic Community (EEC): Commission directive 92/69/EEC of 31 Jul. 1992, Methods for the determination of ecotoxicity, C.3., “Algal Inhibition Test”. Data from the aquatic toxicity tests of the isolated and purified C12 mono and disulfonates from Example 11 is shown in Table 3.

[2] = system: Daphna magna; test: 48-hour acute toxicity to Daphnia; assay type: in vivo
Description: The study procedures and test methods are based on the recommendations of the following guidelines:
Data from the aquatic toxicity tests of the isolated and purified C12 mono and disulfonates from Example 11 is shown in Table 3.

[3] = Solubility evaluation, visual assessment in caustic, calcium chloride and cold water; assay type: physicochemical
Description: The final concentrations are: 0.1 wt % for surfactant, 10 wt % for NaOH.
The final concentrations are: 0.1 wt % for surfactant, 1 M for CaCl2.
, C12, and C14 sulfonate compositions of the invention, as produced in Examples 5, 7, and 8, in 10% sodium hydroxide, 1M calcium chloride, […] 2A1 are shown in Table 2 below, and indicate that these new materials have desirable characteristics.

Compound | EC50 [1] | EC50 [2] | Visual assessment, 0.1 wt % surfactant in 1M CaCl2 ([3]; 0.1 wt % surfactant, 1 M CaCl2) | Visual assessment, 0.1 wt % surfactant in 10% NaOH ([3]; 0.1 wt % surfactant, 10 wt % NaOH) | Visual assessment, 1 wt % surfactant at 7° C. ([3]; 1 wt % surfactant, 7° C.)
CCCCCCCCCCCCOC(CS(=O)(=O)[O-])CS(=O)(=O)[O-].[Na+].[Na+] [sodium 2-(dodecanyloxy)propane-1,3-disulfonate] | > 100 µg/mL | > 100 µg/mL | – | – | –
linear alkylbenzene sulfonate [LAS] | – | – | cloudy | cloudy | cloudy
